Test results from patent publication US20190211317A1, “PEPTIDES AND NANOPARTICLES FOR INTRACELLULAR DELIVERY OF GENOME-EDITING MOLECULES” (Aadigen, LLC, priority 2016, published 2019).
Several values for one entry are separate records, joined by “and”; a condition that tells them apart may be missing. Equal values may be shown once.

Legend:
[1] = system: endogenous hPD1 gene in JURKAT and K562 cells; experiment: hPD1 gene editing in T cell lines (T7E1 assay); type: cell-based, human
Experimental: CAS9 protein was preloaded with purified sgRNA at a molar ratio of 1:1 and incubated for 10 min prior to forming complexes with peptides.
5×10^6 cells were washed twice with DPBS by centrifuging at 800 rpm for 5 minutes and resuspended in 100 ^l transfection buffer, and then transferred into the electroporation cuvette. An optimized program selected for both high transfection and high efficiency on T cells was used. After electroporation, cells were resuspended in 500 ^l pre-warmed AIM-V medium containing 10% FBS and incubated at 37° C. in 5% CO2. The transfection efficiency was evaluated after 48 hr by flow cytometry or T7E1 assay.
RNAiMAX delivery method was used as positive control. Cells were either resuspended in or overlaid with 100 μl of preformed complexes, incubated for 3-5 min, and then 300 μl of DMEM was added. […] The indel frequency in the hPD1 gene was quantified using the T7E1 assay.

[2] = system: U2OS and HEPG2 cell lines and primary human fibroblasts; experiment: CAS9 protein expression after CPP delivery of CAS9-expressing plasmid (ELISA); type: cell-based; conditions: U2OS, HEPG2, primary human fibroblasts; day 6; plasmid 0.5 μg
Experimental: CPP/plasmid complexes were prepared by mixing 0.5 μg of a CAS9-expressing plasmid (Addgene MLM3639-Plasmid #42252) with CPP at a 20:1 molar ratio of CPP:cargo and incubating for 30 min at 37° C. prior to cell transfection. Cells were transfected according to the protocols for adherent and suspension cells described in Example 13a. Lipofectamine 2000 was used as lipid-based delivery control. CAS9 protein expression level was analyzed at multiple time points over a period of 10 days as determined by ELISA on protein extracts using antibodies against CRISPR/Cas9 obtained from Diagenode (Diagenode cat. No. C15200223) and ABCAM (clone 7A9-ab191468).

Swiss mice = conditions: CAS9 protein 5 μg/VEPEP-3a 20:1; single i.v.; 12-72 hr
Experimental: Free CAS9 protein in physiological buffer was injected as a negative control, and administration of LPS was used as a positive control for cytokine activation. […] Serum cytokine levels were measured using The Cytokine Mouse Magnetic 20-Plex Panel from Invritrogen (LMC 0006M).

[3] = system: hPD1 gene in human T cells; experiment: hPD1 gene editing in primary human T cells (T7E1 assay); type: cell-based
Experimental: T cells were isolated from PBMCs (2 different donors) using anti-CD3/anti-CD28 antibodies bound to paramagnetic beads (Dynabeads ClinExVivo CD3/CD28, Invitrogen) at a ratio of 3:1 (beads:cells). The cells and beads were co-incubated for 2 hours at room temperature and CD3′ cell enrichment was performed using Dynal ClinExVIVO MPC magnet (Thermo Fisher). The anti-CD3/anti-CD28 paramagnetic beads were removed, washed and concentrated. Cells in the CD3′ fraction were resuspended in activation media at a concentration of 1×10^6 cells/ml with AIM-V medium (Thermo Fishers) supplemented with 10% fetal calf serum, 300 IU/ml IL2 and 50 ng/ml OKT3 (MuromonAB-CD3) for two days.
Cells were transfected by electroporation with CD-19 plasmid or gRNA/CAS9 (5 μg/10 μg) using a Nucleofector 2b (Lonza, Germany) with the Amaxa Human T cells Nucleofector Kit, VPA-1002 (Lonza, Germany). 5×10^6 cells were washed twice with DPBS by centrifuging at 800 rpm for 5 minutes and resuspended in 100 ^l transfection buffer, and then transferred into the electroporation cuvette. An optimized program selected for both high transfection and high efficiency on T cells was used. After electroporation, cells were resuspended in 500 ^l pre-warmed AIM-V medium containing 10% FBS and incubated at 37° C. in 5% CO2. The transfection efficiency was evaluated after 48 hr by flow cytometry or T7E1 assay.
As control, CAS9 loaded with gRNA targeting GFP was used.
Cells were returned to the incubator for 72 hours. CAS9-induced double-strand break followed by repair through non-homologous end joining (NHEJ) was analyzed by either the T7E1 assay or using the Genome Cleavage Detection kit (GCD Thermo Fisher) and quantified using Fragment Analyzer System. The indel frequency in the target gene was quantified using the T7E1 assay. The cultures were expanded and analyzed for viability and PD1 levels every 10 days. T cell expansion medium contained AIM V medium, supplemented with 5% heat-inactivated human AB Serum, 1% Gluta-Max, and 300 IU/mL IL-2.

JURKAT and K562 cells = experiment: Toxicity of CPP/CAS9/gRNA complexes in T cell lines (MTT assay); type: cell-based, human; conditions: up to 100 nM, 24 h
Experimental: A total of 30,000 JURKAT or K562 cells seeded in 24-well plates the day prior to transfection were incubated with increasing concentrations of CPP/CAS9/gRNA complexed at 20:1 molar ratio (CPP to CAS9/gRNA) ranging from 1 nM to 200 nM for 30 min prior to addition of medium to reach a final 10% concentration of FCS. Cytotoxic response was measured 24 hours later by colorimetric MTT assay (Sigma, Germany). For MTT assay, cell culture medium was removed and replaced with PBS containing 2.5 mg/ml of MTT for 4 hours. Results correspond to the average of 3 independent experiments.

[4] = system: hPD1 gene in human T cells; experiment: Simultaneous delivery of CAR plasmid and CAS9/gRNA: hPD1 editing (T7E1); type: cell-based; conditions: for mean indel frequency: two donors
Experimental: Cells were incubated for 5 min, then 300 μl of serum free RPMI-1640 medium was added. After 30 min, 1.2 mL of full medium was added and serum level was adjusted to 10%. As control, CAS9 loaded with gRNA targeting GFP was used. For comparison with electroporation methods, cells were transfected with the anti-CD-19 CAR plasmid (5 μg) and gRNA/CAS9 (5 μg/10 μg) using Nucleofector 2b (Lonza, Germany) with the Amaxa Human T cells Nucleofector Kit, VPA-1002 (Lonza, Germany).
On day 5, the level of transduced and untransduced cells was analyzed, and cells were transferred to fresh T cell expansion medium. The cultures were analyzed for viability and anti-CD19 CAR expression by flow cytometry. The expression of the anti-CD19 CAR in the T cells was evaluated by flow cytometry using a Protein L assay. […] 7-AAD (Sigma) was used to determine viability. CAS9-induced double-strand break followed by repair through NHEJ system was analyzed by either the T7E1 assay or using the Genome Cleavage Detection kit (GCD Thermo Fisher) and quantified using Fragment Analyzer System. The indel frequency in the target gene was quantified using the T7E1 assay. The cultures were expanded and analyzed for viability, anti-CD19 expression and PD I level every 10 days. T cell expansion medium contained AIM V medium, supplemented with 5% heat-inactivated human AB Serum, 1% Gluta-Max, and 300 IU/mL IL-2.

[5] = system: U2OS, HEPG2, K562 cells and primary human fibroblasts; experiment: CAS9 protein expression after CPP delivery of CAS9 mRNA (ELISA); type: cell-based; conditions: day 3; cell types not specified
Experimental: CPP/CAS9 mRNA complexes were formed by mixing the CAS9 mRNA (0.5 μg) with CPP at a 20:1 molar ratio of CPP:CAS9 mRNA and incubating for 30 min at 37° C. prior to cell transfection. Cells were transfected according to optimized protocols for either adherent or suspension cell lines.
Human primary fibroblasts were freshly obtained and grown in flasks pre-coated with a gelatin-based coating solution and incubated in Culture Complete Growth Medium for 3 days before expansion and treatment. U2OS cells were cultured in Dulbecco's Modified Eagle's Medium (DMEM), supplemented with 2 mM glutamine, 1% antibiotics (streptomycin 10,000 μg/mL, penicillin, 10,000 IU/mL) and 10% (w/v) foetal calf serum (FCS), at 37° C. in a humidified atmosphere containing 5% CO2. 35 mm dishes seeded with 150,000 cells the day prior to transfection were grown to 50-60% confluence and set up to be at about 70% confluences at the time of transfection. Before transfection, cells were washed with DMEM (2×) followed by PBS (1×). Cells were then overlaid with 0.2 ml of complex solution (16 μl CPP/Cargo complex in water+184 μl OPTiMEM without antibiotics), mixed gently, and incubated for 10 min at 37° C. 0.8 mL of fresh OPTiMEM or DMEM was then added and cells were incubated for 20 min at 37° C. 2 mL of complete OPTiMEM (high glucose) or DMEM containing 11.4% FCS was then added in order to reach a final FCS concentration of 10%, without removing the overlay of CPP/Cargo complexes. Cells were returned to the incubator (37° C., 5% CO2) and assayed at 72 hours post transfection.
K562 and HEpG2 cells were set up to be at about 70% confluence at the time of transfection. The cells were maintained in high glucose DMEM media with 10% serum. Before transfection, cells were harvested by centrifugation, then washed with DMEM (2×) followed by PBS (1×). Cells were then resuspended in 0.2 ml of complex solution (16 μl CPP/Cargo complex in water+184 μl OPTiMEM without antibiotics), mixed gently, and incubated for 10 min at 37° C. 0.8 mL of fresh OPTiMEM was then added and cells were incubated for 20 min at 37° C. 2 mL of complete OPTiMEM (high glucose) containing 11.4% FCS was then added in order to reach a final FCS concentration of 10%, without removing the overlay of CPP/Cargo complexes. Cells were returned to the incubator (37° C., 5% CO2) and assayed at 72 hours post transfection.
RNAiMAX lipid-based delivery (Invitrogen Thermo Fisher France) was used as a control and transfections were performed following the manufacturer's instructions. CAS9 expression level was analyzed at multiple time points over a period of 10 days as determined by ELISA on protein extracts using antibodies against CRISPR/Cas9 obtained from Diagenode (Diagenode cat. No. C15200223) and ABCAM (clone 7A9-ab191468).

[6] = system: HPRT gene in mouse muscle myoblast cells (C2C12); experiment: HPRT gene editing in C2C12 myoblasts (T7E1 assay); type: cell-based
Experimental: (§1) […] Delivery by RNAiMAX was included as a positive control.
(§2) CAS9-induced NHEJ was analyzed 72 hours after transfection by PCR (FIG. 26) and T7E1 assay (FIG. 27). The deletion (indel) frequencies in the HPRT gene were quantified using a T7E1 assay by quantifying the amount of uncut vs cut DNA using a Fragment Analyzer System. Data for on-target mutations induced by RGEN/gRNA are reported as an average of 3 separate experiments
(§3) The cell line was maintained in 5% CO2 at 37° C. and cell viability was assessed by the Trypan Blue exclusion test. To induce myogenic differentiation, at about 80% cell confluence the medium containing 10% fetal calf serum was substituted with medium containing 1% fetal calf serum. The cells were transfected at the undifferentiated stage or at day 7 after differentiation.

[7] = system: E-Catenin gene in mouse muscle myoblast cells (C2C12); experiment: ü-Catenin gene disruption in C2C12 myoblasts (PCR gel); type: cell-based; conditions: undifferentiated and differentiated C2C12
Experimental: Cells were transfected with CAS9/gRNA (2.5 μM/5 μM) complexes associated with CPP (+) or not (−) at a molar ratio of 20:1 (peptide to complex) and compared to delivery by RNAiMAX for E-Catenin expression. ü-actin expression was included as a loading control.
as §1, §2, §3

[8] = Particle size, polydispersity and zeta potential with different cargoes (Zetasizer NANO ZS P); type: physicochemical; conditions: 20:1
Experimental: The CPP/CAS9-protein, CPP/CAS9-protein/sgRNA, CPP/CAS9-mRNA, CPP/CAS-mRNA/sgRNA particles were characterized; the mean size, polydispersity, and zeta potential were measured with a Zetasizer NANO ZS P apparatus (Malvern Ltd).
The mean size and the polydispersity of the CCP/cargo complexes were determined at 25° C. for 5 min per measurement and zeta potential was measured with a Zetasizer NANO ZS P apparatus (Malvern Ltd).

primary human T cells = experiment: CAS9 protein expression in primary human T cells after CAS9 mRNA or plasmid delivery (ELISA); type: cell-based; conditions: day 3
Experimental: T cells were isolated from PBMCs using anti-CD3/anti-CD28 antibodies bound to paramagnetic beads (Dynabeads ClinExVivo CD3/CD28, Invitrogen) at a ratio of 3:1 (beads:cells). The cells and beads were co-incubated for 2 hours at room temperature and CD3^+ cell enrichment was performed using Dynal ClinExVIVO MPC magnet (Thermo Fisher). The anti-CD3/anti-CD28 paramagnetic beads were removed, washed and concentrated. Cells in the CD3^+ fraction were resuspended in activation media at a concentration of 1×10^6 cells/ml with AIM-V medium (Thermo Fishers) supplemented with 10% fetal calf serum, 300 IU/ml IL2 and 50 ng/ml OKT3 (MuromonAB-CD3) for two days.
CPP/CAS9 complexes were formed by mixing the CAS9 mRNA (0.5 μg) with CPP at a 20:1 molar ratio of CPP:CAS9 mRNA and incubating for 30 min at 37° C. prior to cell transfection. CPP/CAS9-expressing plasmid complexes were formed by mixing the CAS9-expressing plasmid (Addgene MLM3639-Plasmid #42252) (0.5 μg) with CPP at a 20:1 molar ratio of CPP:plasmid and incubating for 30 min at 37° C. prior to cell transfection.
Cells were transfected according to the protocol for suspension cells described in Example 13a. RNAiMAX and lipofectamine 2000 lipid-based delivery methods (Invitrogen Thermo Fisher France) were used as controls, and transfections were performed following the manufacturer's instructions. CAS9 protein expression level was analyzed at multiple time points over a period of 10 days as determine by ELISA on protein extracts using antibodies against CRISPR/Cas9 obtained from Diagenode (Diagenode cat. No. C15200223) and ABCAM (clone 7A9-ab191468).

[9] = Donor 1, CAS9/sgRNA 2.5 μg/5 μg
[10] = Donor 2, CAS9/sgRNA 2.5 μg/5 μg

Experimental for Primary T cells: The toxicity of CPP/CAS9/gRNA complexes was investigated in the two cell lines (JURKAT and K562) and in PBMC-isolated T cells. Cell viability was determined using either MTT assay or 7-AAD.
Data were normalized to untransfected cells and compared to T cells incubated with free CAS9/gRNA.

In the case of N=C(N)NCCC[C@H](NC(=O)[C@H](CCCNC(=N)N)NC(=O)[C@H](CCCCN)NC(=O)[C@H](CCCNC(=N)N)NC(=O)[C@@H]1CCCN1C(=O)[C@H](Cc1c[nH]c2ccccc12)NC(=O)[C@H](CCC(=O)O)NC(=O)[C@H](CCCNC(=N)N)NC(=O)[C@H](Cc1ccccc1)NC(=O)[C@H](Cc1c[nH]c2ccccc12)NC(=O)[C@H](CCCNC(=N)N)NC(=O)[C@H](CCC(=O)O)NC(=O)[C@H](Cc1ccccc1)NC(=O)[C@H](Cc1c[nH]c2ccccc12)NC(=O)[C@H](CCCCN)NC(=O)CCN)C(=O)O [VEPEP-3a], the “Mean indel Frequency ± s.e.m” value ([1]; JURKAT, CAS9/sgRNA 2.5 μg/5 μg) is reported as 72 ± 5%, the “Mean indel Frequency ± s.e.m” value ([1]; JURKAT, CAS9/sgRNA 5 μg/10 μg) is reported as 78% and 78 ± 7% and the “Mean indel Frequency ± s.e.m” value ([1]; K562, CAS9/sgRNA 2.5 μg/5 μg) is reported as 71 ± 6%. For the same compound, the “Mean indel Frequency ± s.e.m” value ([1]; K562, CAS9/sgRNA 5 μg/10 μg) was 75% and 75 ± 6%, the “ELISA signal for CAS9 protein expression” value [2] was “little to no increase” and the non-specific cytokine induction (Swiss mice) was “little to no impact”. The “Mean indel Frequency ± s.e.m” value [3, 9] was 62 ± 5%, the “Mean indel Frequency ± s.e.m” value ([3]; Donor 1, CAS9/sgRNA 5 μg/10 μg) was 65 ± 5% and the “Mean indel Frequency ± s.e.m” value [3, 10] was 67 ± 8%. For the same compound, the “Mean indel Frequency ± s.e.m” value ([3]; Donor 2, CAS9/sgRNA 5 μg/10 μg) was 70 ± 5%, the “mean indel frequency of hPD1 gene” value ([3]; T cells from the two donors, 5 μg/10 μg CAS9/gRNA) was 66% and the toxicity (JURKAT and K562 cells) was “no toxicity”. The “Mean indel Frequency ± s.e.m” value [4, 9] was 51 ± 5%, the “Mean indel Frequency ± s.e.m” value ([4]; Donor 1, CAS9/sgRNA 5 μg/10 μg) was 57 ± 2% and the “Mean indel Frequency ± s.e.m” value [4, 10] was 53 ± 5%. The “Mean indel Frequency ± s.e.m” value ([4]; Donor 2, CAS9/sgRNA 5 μg/10 μg) was 58 ± 8%, the mean indel frequency ([4]; 2.5 μg/5 μg CAS9/gRNA) was “approximately 50%” and the mean indel frequency ([4]; 5 μg/10 μg CAS9/gRNA) was ~57%. The “ELISA signal for CAS9 protein expression” value [5] was “little to no increase”, the mean indel frequency ([6]; differentiated C2C12) was 73% and the mean indel frequency ([6]; undifferentiated C2C12, 5 μg/10 μg CAS9/gRNA, 20:1) was 81%. The average viability (Primary T cells) was ≥ 80%, the “editing of ü-Catenin and HPRT genes” value [7] was “robust editing” and the “formation of stable nanoparticles” value ([8]; with CAS9-protein and CAS9-protein/gRNA complex) was “able to form stable nanoparticles”. For the same compound, the Mean diameter ([8]; with CAS9-protein and CAS9-protein/gRNA) was “about 60 nm”, the “ELISA signal for CAS9 protein expression” value (primary human T cells; CAS9-expressing plasmid 0.5 μg) was “little to no CAS9 expression” and the “ELISA signal for CAS9 protein expression” value (primary human T cells; CAS9 mRNA 0.5 μg) was “little to no CAS9 expression”.
